Results published in patent US8461083B2, “Herbicidal compounds” (Syngenta Limited, priority 2008, dated 2013).

Legend:
Format in all cases: in vivo
[1] = tested on: Amaranthus retoflexus (AMARE); assay: Pre-emergence herbicidal glasshouse test; conditions: pre-emergence (sprayed after one day cultivation), evaluated after 13 days, 100=total damage to plant, 0=no damage to plant; for pest or weed control at 1000 g/ha: Amaranthus retroflexus, 312 h, read-out: PRE Application AMARE, damage to plant; for PRE Application AMARE, damage to plant: 1000 g/ha
Protocol: (§1) Seeds of a variety of test species were sown in standard soil in pots (Alopecurus myosuroides (ALOMY), Setaria faberi (SETFA), Echinochloa crus-galli (ECHCG), Solanum nigrum (SOLNI) and Amaranthus retoflexus (AMARE)). After cultivation for one day (pre-emergence) or after 8 days cultivation (post-emergence) under controlled conditions in a glasshouse (at 24/16° C., day/night; 14 hours light; 65% humidity), the plants were sprayed with an aqueous spray solution derived from the formulation of the technical active ingredient in acetone/water (50:50) solution containing 0.5% Tween 20 (polyoxyethelyene sorbitan monolaurate, CAS RN 9005-64-5). Compounds were applied at 1000 g/ha. The test plants were then grown in a glasshouse under controlled conditions in a glasshouse (at 24/16° C., day/night; 14 hours light; 65% humidity) and watered twice daily. After 13 days for pre and post-emergence, the test was evaluated (100=total damage to plant; 0=no damage to plant).

[2] = tested on: Alopecurus myosuroides (ALOMY); assay: Pre-emergence herbicidal glasshouse test; conditions: pre-emergence (sprayed after one day cultivation), evaluated after 13 days, 100=total damage to plant, 0=no damage to plant; for pest or weed control at 1000 g/ha: Alopecurus myosuroides, 312 h, read-out: PRE Application ALOMY, damage to plant; for PRE Application ALOMY, damage to plant: 1000 g/ha
Protocol: as §1

Setaria faberi (SETFA) [3] = assay: Pre-emergence herbicidal glasshouse test; conditions: pre-emergence (sprayed after one day cultivation), evaluated after 13 days, 100=total damage to plant, 0=no damage to plant; for pest or weed control at 1000 g/ha: Setaria faberi, 312 h, read-out: PRE Application SETFA, damage to plant; for PRE Application SETFA, damage to plant: 1000 g/ha
Protocol: as §1

Solanum nigrum (SOLNI) [4] = assay: Pre-emergence herbicidal glasshouse test; conditions: pre-emergence (sprayed after one day cultivation), evaluated after 13 days, 100=total damage to plant, 0=no damage to plant; for pest or weed control at 1000 g/ha: Solanum nigrum, 312 h, read-out: PRE Application SOLNI, damage to plant; for PRE Application SOLNI, damage to plant: 1000 g/ha
Protocol: as §1

[5] = tested on: Echinochloa crus-galli (ECHCG); assay: Pre-emergence herbicidal glasshouse test; conditions: pre-emergence (sprayed after one day cultivation), evaluated after 13 days, 100=total damage to plant, 0=no damage to plant; for pest or weed control at 1000 g/ha: Echinochloa crus-galli, 312 h, read-out: PRE Application ECHCG, damage to plant; for PRE Application ECHCG, damage to plant: 1000 g/ha
Protocol: as §1

[6] = tested on: Amaranthus retoflexus (AMARE); assay: Post-emergence herbicidal glasshouse test; conditions: post-emergence (sprayed after 8 days cultivation), evaluated after 13 days, 100=total damage to plant, 0=no damage to plant; for pest or weed control at 1000 g/ha: Amaranthus retroflexus, 312 h, read-out: POST Application AMARE, damage to plant; for POST Application AMARE, damage to plant: 1000 g/ha
Protocol: as §1

[7] = tested on: Alopecurus myosuroides (ALOMY); assay: Post-emergence herbicidal glasshouse test; conditions: post-emergence (sprayed after 8 days cultivation), evaluated after 13 days, 100=total damage to plant, 0=no damage to plant; for pest or weed control at 1000 g/ha: Alopecurus myosuroides, 312 h, read-out: POST Application ALOMY, damage to plant; for POST Application ALOMY, damage to plant: 1000 g/ha
Protocol: as §1

Setaria faberi (SETFA) [8] = assay: Post-emergence herbicidal glasshouse test; conditions: post-emergence (sprayed after 8 days cultivation), evaluated after 13 days, 100=total damage to plant, 0=no damage to plant; for pest or weed control at 1000 g/ha: Setaria faberi, 312 h, read-out: POST Application SETFA, damage to plant; for POST Application SETFA, damage to plant: 1000 g/ha
Protocol: as §1

Solanum nigrum (SOLNI) [9] = assay: Post-emergence herbicidal glasshouse test; conditions: post-emergence (sprayed after 8 days cultivation), evaluated after 13 days, 100=total damage to plant, 0=no damage to plant; for pest or weed control at 1000 g/ha: Solanum nigrum, 312 h, read-out: POST Application SOLNI, damage to plant; for POST Application SOLNI, damage to plant: 1000 g/ha
Protocol: as §1

[10] = tested on: Echinochloa crus-galli (ECHCG); assay: Post-emergence herbicidal glasshouse test; conditions: post-emergence (sprayed after 8 days cultivation), evaluated after 13 days, 100=total damage to plant, 0=no damage to plant; for pest or weed control at 1000 g/ha: Echinochloa crus-galli, 312 h, read-out: POST Application ECHCG, damage to plant; for POST Application ECHCG, damage to plant: 1000 g/ha
Protocol: as §1

CC(C)c1nc2nc(C(F)(F)F)c(C(=O)C3C(=O)CCCC3=O)cc2cc1F [Compound 1.75, 2-[6-fluoro-7-methylethyl-2-trifluoromethyl-[1,8]-naphthyridine-3-carbony]-cyclohexane-1,3-dione]
pest or weed control at 1000 g/ha [1]: 80%
pest or weed control at 1000 g/ha [2]: 80%
pest or weed control at 1000 g/ha (Setaria faberi (SETFA) [3]): 90%
pest or weed control at 1000 g/ha (Solanum nigrum (SOLNI) [4]): 90%
pest or weed control at 1000 g/ha [5]: 90%
pest or weed control at 1000 g/ha [6]: 80%
pest or weed control at 1000 g/ha [7]: 80%
pest or weed control at 1000 g/ha (Setaria faberi (SETFA) [8]): 90%
pest or weed control at 1000 g/ha (Solanum nigrum (SOLNI) [9]): 90%
pest or weed control at 1000 g/ha [10]: 90%

CCOc1nc2nc(C(F)(F)F)c(C(=O)C3C(=O)C4CCC(C4)C3=O)cc2cc1F (stereo not drawn) [Compound 3.4]
pest or weed control at 1000 g/ha [1]: 100%
pest or weed control at 1000 g/ha [2]: 70%
pest or weed control at 1000 g/ha (Setaria faberi (SETFA) [3]): 100%
pest or weed control at 1000 g/ha (Solanum nigrum (SOLNI) [4]): 100%
pest or weed control at 1000 g/ha [5]: 100%
pest or weed control at 1000 g/ha [6]: 70%
pest or weed control at 1000 g/ha [7]: 70%
pest or weed control at 1000 g/ha (Setaria faberi (SETFA) [8]): 90%
pest or weed control at 1000 g/ha (Solanum nigrum (SOLNI) [9]): 90%
pest or weed control at 1000 g/ha [10]: 80%

CCCn1c(=O)ccc2cc(C(=O)C3C(=O)CCCC3=O)c(C(F)(F)F)nc21 [Compound 2.13, 2-{8-n.-propyl-7-oxo-7,8-dihydro-2-trifluoromethyl-[1,8]-naphthyridine-3-carbony}-cyclohexane-1,3-dione]
PRE Application AMARE, damage to plant [1]: 90
PRE Application ALOMY, damage to plant [2]: 60
PRE Application SETFA, damage to plant (Setaria faberi (SETFA) [3]): 90
PRE Application SOLNI, damage to plant (Solanum nigrum (SOLNI) [4]): 100
PRE Application ECHCG, damage to plant [5]: 90
POST Application AMARE, damage to plant [6]: 70
POST Application ALOMY, damage to plant [7]: 80
POST Application SETFA, damage to plant (Setaria faberi (SETFA) [8]): 90
POST Application SOLNI, damage to plant (Solanum nigrum (SOLNI) [9]): 90
POST Application ECHCG, damage to plant [10]: 90

O=C1CCCC(=O)C1C(=O)c1cc2ccc(Br)nc2nc1C(F)(F)F [Compound 1.99]
pest or weed control at 1000 g/ha [1]: 100%
pest or weed control at 1000 g/ha [2]: 10%
pest or weed control at 1000 g/ha (Setaria faberi (SETFA) [3]): 40%
pest or weed control at 1000 g/ha (Solanum nigrum (SOLNI) [4]): 90%
pest or weed control at 1000 g/ha [5]: 90%
pest or weed control at 1000 g/ha [6]: 100%
pest or weed control at 1000 g/ha [7]: 30%
pest or weed control at 1000 g/ha (Setaria faberi (SETFA) [8]): 80%
pest or weed control at 1000 g/ha (Solanum nigrum (SOLNI) [9]): 70%
pest or weed control at 1000 g/ha [10]: 80%

CC(C)(F)c1ccc2cc(C(=O)C3C(=O)CCCC3=O)c(C(F)(F)F)nc2n1 [Compound 1.37]
PRE Application AMARE, damage to plant [1]: 100
PRE Application ALOMY, damage to plant [2]: 80
PRE Application SETFA, damage to plant (Setaria faberi (SETFA) [3]): 100
PRE Application SOLNI, damage to plant (Solanum nigrum (SOLNI) [4]): 100
PRE Application ECHCG, damage to plant [5]: 100
POST Application AMARE, damage to plant [6]: 100
POST Application ALOMY, damage to plant [7]: 80
POST Application SETFA, damage to plant (Setaria faberi (SETFA) [8]): 90
POST Application SOLNI, damage to plant (Solanum nigrum (SOLNI) [9]): 70
POST Application ECHCG, damage to plant [10]: 90

Cc1c(F)cnc2nc(C(F)(F)F)c(C(=O)C3C(=O)C4CCC(C4)C3=O)cc12 (stereo not drawn) [Compound 3.5, 3-[6-Fluoro-5-methyl-2-trifluoromethyl-[1,8]-naphthyridine-3-carbony]-bicyclo[3.2.1]octane-2,4-dione]
pest or weed control at 1000 g/ha [1]: 20%
pest or weed control at 1000 g/ha [2]: 0%
pest or weed control at 1000 g/ha (Setaria faberi (SETFA) [3]): 30%
pest or weed control at 1000 g/ha (Solanum nigrum (SOLNI) [4]): 60%
pest or weed control at 1000 g/ha [5]: 50%
pest or weed control at 1000 g/ha [6]: 50%
pest or weed control at 1000 g/ha [7]: 0%
pest or weed control at 1000 g/ha (Setaria faberi (SETFA) [8]): 70%
pest or weed control at 1000 g/ha (Solanum nigrum (SOLNI) [9]): 80%
pest or weed control at 1000 g/ha [10]: 70%
